Source: PubChem BioAssay (NCI)
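Cultured in 96-well plates, cells were exposed to test compound for 48 hours across five concentrations. TGI is the concentration that stops growth completely.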

Tests used:
Experiment in all cases: NCI-60 cell line screen, 48 h
UACC-62 melanoma = system: UACC-62 melanoma
SK-MEL-5 melanoma = system: SK-MEL-5 melanoma
SN12C renal = system: SN12C renal
CAKI-1 renal = system: CAKI-1 renal
CCRF-CEM leukemia = system: CCRF-CEM leukemia
NCI-H23 lung = system: NCI-H23 lung
HL-60(TB) leukemia = system: HL-60(TB) leukemia
A549 NSCLC = system: A549 NSCLC
SF-295 CNS = system: SF-295 CNS
HCT-15 colon = system: HCT-15 colon
RPMI-8226 leukemia = system: RPMI-8226 leukemia
HCT-116 colon = system: HCT-116 colon
NCI/ADR-RES ovarian = system: NCI/ADR-RES ovarian
HT29 colon = system: HT29 colon
HS 578T breast = system: HS 578T breast
EKVX NSCLC = system: EKVX NSCLC
MDA-N = system: MDA-N
U251 CNS = system: U251 CNS
OVCAR-3 ovarian = system: OVCAR-3 ovarian
OVCAR-4 ovarian = system: OVCAR-4 ovarian
SK-OV-3 ovarian = system: SK-OV-3 ovarian
OVCAR-8 ovarian = system: OVCAR-8 ovarian
TK-10 renal = system: TK-10 renal
PC-3 prostate = system: PC-3 prostate
SR leukemia = system: SR leukemia
NCI-H226 lung = system: NCI-H226 lung
ACHN renal = system: ACHN renal
MDA-MB-435 = system: MDA-MB-435
NCI-H460 lung = system: NCI-H460 lung
MOLT-4 leukemia = system: MOLT-4 leukemia
HOP-62 NSCLC = system: HOP-62 NSCLC
LOX IMVI melanoma = system: LOX IMVI melanoma
SW-620 colon = system: SW-620 colon
SF-268 CNS = system: SF-268 CNS
K-562 leukemia = system: K-562 leukemia
IGROV1 ovarian = system: IGROV1 ovarian
SF-539 CNS = system: SF-539 CNS
DU-145 prostate = system: DU-145 prostate
UACC-257 melanoma = system: UACC-257 melanoma
A498 renal = system: A498 renal
SK-MEL-28 melanoma = system: SK-MEL-28 melanoma
HCC-2998 colon = system: HCC-2998 colon
NCI-H522 lung = system: NCI-H522 lung
MDA-MB-231 breast = system: MDA-MB-231 breast
KM12 colon = system: KM12 colon
SNB-19 CNS = system: SNB-19 CNS
MALME-3M melanoma = system: MALME-3M melanoma
786-0 renal = system: 786-0 renal
T-47D breast = system: T-47D breast
MCF7 breast = system: MCF7 breast

Measured: TGI

Nc1ccc(Nc2cc(=O)[nH]c(=O)[nH]2)cc1
> 100 µM: all assays above
